Assay results from PubChem BioAssay (NCI).
“And” between values parts separate entries of the source, which are not always exact repeats. Equal entries are not always repeated.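 Five compound concentrations were applied to cells in 96-well plates for 48 hours; endpoints were derived by simple linear interpolation of the resulting dose-response curve. GI50 is the concentration that inhibits growth by half. TGI: total growth inhibition.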

Tests used:
Assay in all cases: NCI anticancer screen, dose series, 48 h
PC-3 prostate = system: PC-3 prostate
HOP-92 NSCLC = system: HOP-92 NSCLC
KM12 colon = system: KM12 colon
RPMI-8226 leukemia = system: RPMI-8226 leukemia
EKVX NSCLC = system: EKVX NSCLC
LOX IMVI melanoma = system: LOX IMVI melanoma
UACC-257 melanoma = system: UACC-257 melanoma
NCI-H23 lung = system: NCI-H23 lung
CCRF-CEM leukemia = system: CCRF-CEM leukemia
HOP-62 NSCLC = system: HOP-62 NSCLC

SMILES	GI50 (PC-3 prostate) [µM]	TGI (PC-3 prostate) [µM]	GI50 (HOP-92 NSCLC) [µM]	TGI (HOP-92 NSCLC)	GI50 (KM12 colon) [µM]	TGI (KM12 colon) [µM]	GI50 (RPMI-8226 leukemia) [µM]	TGI (RPMI-8226 leukemia) [µM]	GI50 (EKVX NSCLC) [µM]	TGI (EKVX NSCLC)	GI50 (LOX IMVI melanoma) [µM]	TGI (LOX IMVI melanoma)	GI50 (UACC-257 melanoma) [µM]	TGI (UACC-257 melanoma)	GI50 (NCI-H23 lung) [µM]	TGI (NCI-H23 lung)	GI50 (CCRF-CEM leukemia) [µM]	TGI (CCRF-CEM leukemia) [µM]	GI50 (HOP-62 NSCLC) [µM]	TGI (HOP-62 NSCLC)
CN1c2ccccc2C(C)(C)C12C=Cc1cc(O)ccc1O2 (stereo not drawn)	3.6	12.6	1.81	5.88 µM	2.31	6.2	1.71	4.91	3.66	14.5 µM	3.41	12.6 µM	2.94	12.1 µM	2.97	13.8 µM	2.87	10.2	3.44	10.6 µM
N#CSCC1CC(O)(c2ccccc2)CC(c2ccc(F)cc2)O1 (stereo not drawn)	2.49	8.38	1.93	6.05 µM	1.63	3.07	1.64	4.65	1.94	5.43 µM	1.7	3.1 µM	3.29	11.9 µM	2.02	5.32 µM	1.72	6.08	1.99	3.61 µM
O=C(NCc1ccc(Cn2c(=O)sn(-c3ccccc3)c2=O)cc1)OCc1ccc2c(Br)cc(Br)c(O)c2n1	0.727	2.18	0.379	1.84 µM	1.57	3.47	0.312	1.72	1.5	3.12 µM	0.171	0.348 µM	1.26	2.74 µM	1.4	3.06 µM	0.351	> 100	1.52	3.45 µM
Nc1nc(-c2ccccc2)nc(N)c1N=O	18.6	66.3	5.32	23.5 µM	4.58	16.9	17.9	78.7	20.1	> 100 µM	3.14	13 µM	8.75	44.3 µM	14.6	41.9 µM	5.8	> 100	12.8	30.5 µM
O=C(NP(=O)(N1CC1)N1CC1)c1cc(I)ccc1I		> 100		> 100 µM		> 100		> 100		> 100 µM		54.8 µM		> 100 µM		56.1 µM		> 78.8		> 71.5 µM
O=C(Nc1ccccc1)NS(=O)(=O)c1ccc(-n2nc3c(c2-c2ccc(Cl)cc2)Cc2ccccc2-3)cc1	16.7	47.8	17.1	67 µM	16	55.1	16.5	48.9	15.8	78.9 µM	15.3	46.4 µM	37.1	> 100 µM			3.21	10.2	72	> 100 µM
CCCCCCCCCCCC1CCCC(C)N1 (stereo not drawn)	5.57	45	6.67	31.8 µM and 90.2 µM	2.95		1.66		12.2	26.3 µM and 119 µM	3.62	16.1 µM and > 70.7 µM	10.3	24.4 µM and 119 µM	8.49	23.9 µM and 133 µM	1.45		14.8	46 µM and 107 µM
CN1CCN(c2ccc3nc(-c4ccc5nc(-c6ccc(OCCC(C)(C)C)cc6)[nH]c5c4)[nH]c3c2)CC1	2.63	5.81	14.3	33.2 µM	1.91	4.2	2.86	7.44	4.67	21.4 µM			20.5	38.3 µM	15.1	33 µM	2.72	7.34	7.1	26.8 µM
COc1cc2c(cc1Nc1nc(Nc3ccsc3C(N)=O)c3cc[nH]c3n1)N(C(=O)CN(C)C)CCC2(C)C	2.55	7.01	< 0.0025	0.833 µM	0.647	2.61	1.09	5.21	0.453	4.97 µM	1.99	6.08 µM	0.0753	4.34 µM	0.791	5.15 µM	0.685	3.78	1.65	5.3 µM
COc1cc(OC)c(/C=C/c2cnc3ccccc3n2)c(OC)c1		> 10		> 10 µM		> 10		> 10		> 10 µM		> 10 µM		> 10 µM		> 10 µM		> 10		> 10 µM
CCN(C(=O)c1cc(F)ccc1Oc1cncnc1N1CC2(CCN(CC3CCC(NS(=O)(=O)CC)CC3)CC2)C1)C(C)C (stereo not drawn)	> 100	> 100	> 100	> 100 µM	> 100	> 100	> 100	> 100	> 100	> 100 µM	> 100	> 100 µM	> 100	> 100 µM	> 100	> 100 µM	> 100	> 100	> 100	> 100 µM
NC(=O)c1cc(-c2ccc(F)cc2)cc(-c2ccncc2)c1N	> 25	> 25	23	> 25 µM	> 25	> 25	> 25	> 25	> 25	> 25 µM	> 25	> 25 µM	> 25	> 25 µM	> 25	> 25 µM	> 25	> 25	> 25	> 25 µM
COc1ccc(/C(C#N)=C/c2ccc(OC)c(OC)c2)cc1		> 100		> 100 µM		> 100		> 100		> 100 µM		> 100 µM		> 100 µM		> 100 µM		> 100		> 100 µM
